From paper PMC8342789, “Structural insights into a flavin-dependent dehalogenase HadA explain catalysis and substrate inhibition via quadruple π-stacking” (The Journal of Biological Chemistry, 2021)

Tests used:
[1] = target: T1, HadA (Ralstonia pickettii, UniProt Q53008); experiment: stopped-flow and HPLC of hydroquinone product; format: biochemical; details: 0.1-6.4 mM 4CP preincubated with enzyme; 25 μM FADH-; 20 mM Hepes pH 7.5; substrate inhibition by dead-end complex
T1 construct: recombinant, E. coli plasmid hadAWT-pET-11a; homotetramer (dimer of dimers); residues 1-517 by domain borders
T1 sequence (Q53008 1-517): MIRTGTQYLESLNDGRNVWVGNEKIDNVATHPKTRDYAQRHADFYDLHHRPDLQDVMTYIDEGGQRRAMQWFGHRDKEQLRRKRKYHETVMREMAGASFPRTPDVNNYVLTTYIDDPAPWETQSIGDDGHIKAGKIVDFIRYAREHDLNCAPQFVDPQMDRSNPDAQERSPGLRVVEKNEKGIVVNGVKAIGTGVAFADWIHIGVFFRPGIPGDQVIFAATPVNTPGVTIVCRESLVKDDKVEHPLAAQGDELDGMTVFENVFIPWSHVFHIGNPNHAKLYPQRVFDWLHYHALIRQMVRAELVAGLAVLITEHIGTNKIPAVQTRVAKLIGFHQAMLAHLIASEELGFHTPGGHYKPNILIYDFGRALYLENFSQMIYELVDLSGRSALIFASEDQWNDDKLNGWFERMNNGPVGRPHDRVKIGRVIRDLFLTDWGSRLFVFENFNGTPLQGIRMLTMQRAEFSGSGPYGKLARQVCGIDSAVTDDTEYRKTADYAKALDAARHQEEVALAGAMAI

[2] = target: T1, HadA; experiment: X-ray crystal structure, […] Å; format: binding
[3] = target: the molecule itself; experiment: crystal structure; HadA (0.3 mM) mixed with FADH- (12 mM) and 4NP (12 mM) in an anaerobic glove box, incubated 2 h; microbatch at 25 °C, sodium citrate, PEG3350, 5% trifluoroethanol, 0.1 M Bis-Tris propane pH 6.5; data at 100 K; molecular replacement with apo-HadA (PDB 6JHM chain A)

Oc1ccc(Cl)cc1 [4-chlorophenol]
stopped-flow and HPLC of hydroquinone product [1]: increasing the 4CP concentration significantly altered the kinetics of the reaction

O=[N+]([O-])c1ccc(O)cc1 [4-nitrophenol]
X-ray crystal structure, 2.3 Å ([2]; ternary complex with FADH-, active site of subunit A, second site at C/D dimer interface (two 4NP, quadruple π-stacking)): only one 4NP molecule could be clearly seen in the expected pocket of subunit A

Cc1cc2c(cc1C)N(C[C@H](O)[C@H](O)[C@H](O)COP(=O)(O)OP(=O)(O)OC[C@H]1O[C@@H](n3cnc4c(N)ncnc43)[C@H](O)[C@@H]1O)c1[nH]c(=O)[nH]c(=O)c1N2 [FADH^–]
X-ray crystal structure, 2.3 Å ([2]; ternary complex with 4NP): strong electron densities could be observed for all four FADH^– molecules

B1: wild-type HadA, flavin-dependent monooxygenase/dehalogenase component from Ralstonia pickettii (enzyme, UniProt Q53008 1-517, looked up)
chain: MIRTGTQYLESLNDGRNVWVGNEKIDNVATHPKTRDYAQRHADFYDLHHRPDLQDVMTYIDEGGQRRAMQWFGHRDKEQLRRKRKYHETVMREMAGASFPRTPDVNNYVLTTYIDDPAPWETQSIGDDGHIKAGKIVDFIRYAREHDLNCAPQFVDPQMDRSNPDAQERSPGLRVVEKNEKGIVVNGVKAIGTGVAFADWIHIGVFFRPGIPGDQVIFAATPVNTPGVTIVCRESLVKDDKVEHPLAAQGDELDGMTVFENVFIPWSHVFHIGNPNHAKLYPQRVFDWLHYHALIRQMVRAELVAGLAVLITEHIGTNKIPAVQTRVAKLIGFHQAMLAHLIASEELGFHTPGGHYKPNILIYDFGRALYLENFSQMIYELVDLSGRSALIFASEDQWNDDKLNGWFERMNNGPVGRPHDRVKIGRVIRDLFLTDWGSRLFVFENFNGTPLQGIRMLTMQRAEFSGSGPYGKLARQVCGIDSAVTDDTEYRKTADYAKALDAARHQEEVALAGAMAI
notes: HadA monooxygenase of the had pathway, Ralstonia pickettii; each protomer is described as N-terminal domain (residues 1-146), beta-sheet domain (147-275) and C-terminal domain (276-517); also called HadAWT; HadA monooxygenase; source: plasmid hadAWT-pET-11a
stoichiometry N [3]: 4

B2: HadA Phe441Val variant (enzyme)
chain: MIRTGTQYLESLNDGRNVWVGNEKIDNVATHPKTRDYAQRHADFYDLHHRPDLQDVMTYIDEGGQRRAMQWFGHRDKEQLRRKRKYHETVMREMAGASFPRTPDVNNYVLTTYIDDPAPWETQSIGDDGHIKAGKIVDFIRYAREHDLNCAPQFVDPQMDRSNPDAQERSPGLRVVEKNEKGIVVNGVKAIGTGVAFADWIHIGVFFRPGIPGDQVIFAATPVNTPGVTIVCRESLVKDDKVEHPLAAQGDELDGMTVFENVFIPWSHVFHIGNPNHAKLYPQRVFDWLHYHALIRQMVRAELVAGLAVLITEHIGTNKIPAVQTRVAKLIGFHQAMLAHLIASEELGFHTPGGHYKPNILIYDFGRALYLENFSQMIYELVDLSGRSALIFASEDQWNDDKLNGWFERMNNGPVGRPHDRVKIGRVIRDLFLTDWGSRLVVFENFNGTPLQGIRMLTMQRAEFSGSGPYGKLARQVCGIDSAVTDDTEYRKTADYAKALDAARHQEEVALAGAMAI
notes: HadA monooxygenase, Ralstonia pickettii, with Phe441Val; same limits as the wild type (domains described over residues 1-517); source: site-directed mutagenesis of hadAWT-pET-11a
binding result [3]: binds
